The record followed here is US8013169B2, “Naphthylmethylimidizoles as therapeutic agents” (Allergan, Inc, priority 2007, dated 2011).

Broadly, the EC50 is the concentration at which the effect is half-maximal.

The target of one experiment is T1, Alpha 1A (Homo sapiens, UniProt P35348).
T1 construct: expressed in transfected cells; host or cells: NIH-3T3
T1 sequence (P35348 1-466): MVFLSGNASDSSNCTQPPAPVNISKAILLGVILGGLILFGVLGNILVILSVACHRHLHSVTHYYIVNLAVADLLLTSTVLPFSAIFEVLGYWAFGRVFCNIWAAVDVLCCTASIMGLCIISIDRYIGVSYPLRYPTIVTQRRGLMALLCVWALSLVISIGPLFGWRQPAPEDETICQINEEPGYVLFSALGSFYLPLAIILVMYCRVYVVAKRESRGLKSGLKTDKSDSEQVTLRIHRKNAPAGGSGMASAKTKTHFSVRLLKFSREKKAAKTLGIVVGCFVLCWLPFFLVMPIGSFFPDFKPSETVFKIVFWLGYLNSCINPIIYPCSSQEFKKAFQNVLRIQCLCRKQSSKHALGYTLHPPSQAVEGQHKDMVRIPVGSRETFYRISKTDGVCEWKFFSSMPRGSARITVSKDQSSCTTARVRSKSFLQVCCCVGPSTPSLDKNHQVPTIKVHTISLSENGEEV
Kind of experiment: RSAT assay, Alpha 1A. The class given is cell-based. Conditions: for Alpha 1A (IA) intrinsic activity: ratio of maximal effect of drug to maximal effect of standard full agonist. The method, then:
(§1) The RSAT assay measures a receptor-mediated loss of contact inhibition that results in selective proliferation of receptor-containing cells in a mixed population of confluent cells. The increase in cell number is assessed with an appropriate transfected marker gene such as […]-galactosidase, the activity of which can be easily measured in a 96-well format. Receptors that activate the G protein, Gq, elicit this response. Alpha2 receptors, which normally couple to Gi, activate the RSAT response when coexpressed with a hybrid Gq protein that has a Gi receptor recognition domain, called Gq/i5.
NIH-3T3 cells are plated at a density of 2×10^6 cells in 15 cm dishes and maintained in Dulbecco's modified Eagle's medium supplemented with 10% calf serum. One day later, cells are cotransfected by calcium phosphate precipitation with mammalian expression plasmids encoding p-SV-β-galactosidase (5-10 μg), receptor (1-2 μg) and G protein (1-2 μg). 40 μg salmon sperm DNA may also be included in the transfection mixture. Fresh media is added on the following day and 1-2 days later, cells are harvested and frozen in 50 assay aliquots. Cells are thawed and 100 μl added to 100 μl aliquots of various concentrations of drugs in triplicate in 96-well dishes. Incubations continue 72-96 hr at 37° C. After washing with phosphate-buffered saline, β-galactosidase enzyme activity is determined by adding 200 μl of the chromogenic substrate (consisting of 3.5 mM o-nitrophenyl-β-D-galactopyranoside and 0.5% nonidet P-40 in phosphate buffered saline), incubating overnight at 30° C. and measuring optical density at 420 nm. The absorbance is a measure of enzyme activity, which depends on cell number and reflects a receptor-mediated cell proliferation. The efficacy or intrinsic activity is calculated as a ratio of the maximal effect of the drug to the maximal effect of a standard full agonist for each receptor subtype. Brimonidine, also called UK14304, the chemical structure of which is shown below, is used as the standard agonist for the alpha2A, alpha2B and alpha2C receptors. The EC50 is the concentration at which the drug effect is half of its maximal effect.
EC50 values are nanomolar. NA stands for “not active” at concentrations less than 10 micromolar. IA stands for “intrinsic activity.”

The next experiment concerns the target T2, Alpha 2B (Homo sapiens, UniProt P18089).
T2 construct: expressed in transfected cells; host or cells: NIH-3T3
T2 sequence (P18089 1-450): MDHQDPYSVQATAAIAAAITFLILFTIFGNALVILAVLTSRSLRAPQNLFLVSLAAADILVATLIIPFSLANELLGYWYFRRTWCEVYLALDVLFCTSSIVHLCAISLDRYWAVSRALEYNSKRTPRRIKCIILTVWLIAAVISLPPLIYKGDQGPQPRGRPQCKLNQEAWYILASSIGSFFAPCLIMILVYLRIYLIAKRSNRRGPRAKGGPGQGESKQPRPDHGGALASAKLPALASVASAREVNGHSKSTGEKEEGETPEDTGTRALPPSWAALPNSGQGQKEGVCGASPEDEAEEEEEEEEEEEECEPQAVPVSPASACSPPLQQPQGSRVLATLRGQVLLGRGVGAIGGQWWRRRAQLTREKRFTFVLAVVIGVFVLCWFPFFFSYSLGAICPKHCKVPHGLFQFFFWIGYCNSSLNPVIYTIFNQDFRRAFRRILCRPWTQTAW
Briefly: RSAT assay, Alpha 2B. The class given is cell-based. The method, then: as §1
NIH-3T3 cells are plated at a density of 2×10^6 cells in 15 cm dishes and maintained in Dulbecco's modified Eagle's medium supplemented with 10% calf serum. […] After washing with phosphate-buffered saline, β-galactosidase enzyme activity is determined by adding 200 μl of the chromogenic substrate (consisting of 3.5 mM o-nitrophenyl-β-D-galactopyranoside and 0.5% nonidet P-40 in phosphate buffered saline), incubating overnight at 30° C. and measuring optical density at 420 nm. The absorbance is a measure of enzyme activity, which depends on cell number and reflects a receptor-mediated cell proliferation. The efficacy or intrinsic activity is calculated as a ratio of the maximal effect of the drug to the maximal effect of a standard full agonist for each receptor subtype. […]

Turning to `CNc1ccc(Cc2nc[nH]c2C)c2ccccc12` [Compound 7, N-methyl-4-((5-methyl-1H-imidazol-4-yl)methyl)naphthalen-1-amine], at Alpha 1A, a half-maximal effect (EC50) was put at 13 nM and the “Alpha 1A (IA) intrinsic activity” value stood at 1.2.

Turning to `Cc1[nH]cnc1Cc1ccc(N)c2ccccc12` [Compound 8, 4-((5-methyl-1H-imidazol-4-yl)methyl)naphthalen-1-amine], on Alpha 1A, the half-maximal effective concentration (EC50) was determined as 55 nM and the “Alpha 1A (IA) intrinsic activity” value was 1.01. This compound had an EC50 at Alpha 2B (RSAT, NIH-3T3 cells coexpressing Gq/i5, NA = not active at concentrations less than 10 micromolar) of 146 nM. Besides, the “Alpha 2B (IA) intrinsic activity” value at Alpha 2B (ratio of maximal effect of drug to maximal effect of standard full agonist brimonidine) worked out at 0.46.
